From patent publication US10633579B2, “Use of environmentally friendly solvents to replace glycol-based solvents” (RHODIA OPERATIONS, priority 2011, dated 2020)

Key:
Format in all cases: physicochemical
[1] = Surface tension by the ring method (Du Nouy method); conditions: undiluted solvent, about 50 milliliters sample
Method: Surface Tension: Referring generally to Table 2, interfacial tension is measured for each test solvent or solvent blend for EGMBE-replacement. No further dilution is performed on the solvent prior to measurement. Interfacial tension was measured using about 50 milliliters sample by the ring method (Du Nouy method).

[2] = Miscibility test with common oilfield solvents (Tables 3-5); parameters: key: S = separate; M = miscible; conditions: 50/50 volume per volume; for Solubility in Crude oil: shaken about a minute, let stand about 5 mins
Method: For each test solvent, it is blended with a common solvent at 50/50 volume per volume ratio. It is shaken vigorously for about a minute and let stand for about 5 mins. A complete miscibility is recorded if there is no formation of layers. Formation of turbid mixture or multiple layers is recorded as immiscible or separate.

[3] = Wettability of EGMBE compared with alternative solvents/blends
[4] = Blends miscible in water and in mud solvents (Table 6); conditions: 50/50 wt, room temperature
Method: Miscibility Test: Referring generally to Tables 4-6, the test solvent or solvent blend for EGMBE-replacement is mixed with common solvents used in oilfield industries to determine miscibility. […] It is shaken vigorously for about a minute and let stand for about 5 mins. A complete miscibility is recorded if there is no formation of layers. Formation of turbid mixture or multiple layers is recorded as immiscible or separate.

[5] = Miscibility of alkyldimethylamides as stated in the text

Row | SMILES | ST (surface tension) [1] [mN/m] | Solubility in Alpha Olefin C1618 [2] | Solubility in Brines (Forties FW) [2] | Solubility in D-Limonene [2] | Solubility in Dodecane (to mimic Kerosen) [2] | Solubility in Exxsol D100 [2] | Solubility in Solvesso 150 ND [2] | Solubility in Water [2] | Solubility in isoparrafin [2] | Solubility in isopropanol [2] | Solubility in toluene [2] | Solubility in xylene [2] | Solubility in Crude oil [2] | wettability, Mean (°) [3] [°] | further results
1 | CC1(C)OCC(CO)O1 (stereo not shown) [Augeo SL 191] | 31.9988 | S | M | M | S | S | M | M | S | M | M | M | S | 50.5 | 
2 | CCCCOCCOCCO [Butyl Carbitol, diethylene glycol butyl ether] |  |  |  |  |  |  |  |  |  |  |  |  |  | 50.8 | 
3 | CCCCOCC(C)O (stereo not shown) [Dowanol, propylene glycol n-butyl ether] |  | M | S | M | M | M | M | S | M | M | M | M | M | 29.8 | 
4 | CCCCOCCO [EGMBE, ethyleneglycolmonobutyl ether] | 26.3757 |  |  |  |  |  |  |  |  |  |  |  |  | 45.0 | Miscibility in Alpha Olefin C1618 [4]: miscible; Miscibility in D-Limonene [4]: miscible; Miscibility in Exxsol D100 [4]: miscible; Miscibility in Isopar L [4]: miscible; Miscibility in Water [4]: miscible; Miscibility in xylene [4]: miscible
5 | CC(C)O [IPA, isopropyl alcohol] |  | M | M | M | M | M | M | M | M | M | M | M | M |  | 
6 | CCCCCCCC(=O)N(C)C [N,N-dimethyloctanamide] |  |  |  |  |  |  |  |  |  |  |  |  |  |  | miscibility [5]: 0.43%
7 | COC(=O)C(C)CCC(=O)N(C)C (stereo not shown) [Polarclean] | 33.871 | S | M | M | S | S | M | M | S | M | M | M | S | 48.9 | 
8 | O [Water] |  |  |  |  |  |  |  |  |  |  |  |  |  | 109.2 | 
